The test system of data set [1] is LNCaP cells. Put plainly: Colony formation (clonal survival). The format is cell-based, human. The conditions noted are these: with or without R1881 0.5 nM, 96 hours, colonies at 14 days; monohydrochloride, monohydrate. The source says: (§1) FIG. 3A. […] Ns, not significant. FIG. 3B. […] Ns, not significant. FIG. 3C. […] P values by ANOVA;
Data set [2] deals with VCaP cells. Put plainly: Colony formation (clonal survival). Format: cell-based, human. The note with it: with or without R1881 0.5 nM, 96 hours, colonies at 14 days; monohydrochloride, monohydrate.
Source text: as §1

Data set [3] relates to MYC in LNCaP and VCaP cells. Put plainly: MYC expression by western blot, RT-PCR, RNAseq. The format is cell-based, human. The note with it: R1881 10 nM, DFMO 5 mM, 96 hours; monohydrochloride, monohydrate. The source says: (§2) FIG. 5A, FIG. 5B, FIG. 5C, FIG. 5D, and FIG. 5E show: FIG. 5A, MYC expression by IHC in a metastatic tumor biopsy from a patient before and after 3 months of BAT. FIG. 5B, Quantification of MYC protein expression from metastatic tumor biopsies from patients before and after 3 months of BAT color-coded by response (non-responder NR; responder R). […] Vinculin was used as a loading control. FIG. 5D, Principal component analysis of RNA and ATAC sequencing of LNCaP cells treated for 5 days with R1881 10 nM (SPA). […] Vinculin was used as a loading control;

Data set [4] relates to hypusinated eIF5A in PCa cell lines. Put plainly: Total and hypusinated eIF5A by western blot. Format: cell-based, human.
Source text: as §2
FIG. 24A. Schematic highlighting generation of hypusinated eIF5A from spermidine. […] Vinculin is used as a loading control. Representative blots of n=2 independent experiments;
Background: A western blot detects proteins with antibodies after separation by electrophoresis.

In data set [5] the test system is LNCaP cells. Put plainly: RNAseq of treated LNCaP cells. Format: cell-based, human. The conditions noted are these: 96 hours.
Source text: Overlap of differentially expressed transcripts occurring due to treatment as per (FIG. 27A). […] Change in RNA transcript abundance of genes located with the 8q24 topologically associated domain (TAD) in LNCaP cells treated as per (FIG. 27A).
Data set [6] concerns AMD1 transcript in LNCaP cells. Put plainly: AMD1 transcript stability after actinomycin, RT-PCR. The format is cell-based, human.
For data set [7] the following is noted: cited from earlier work.

The structures appear in SMILES notation. Entries after “also recorded” stand apart in the source; their conditions may differ. Where a name gives a salt, the structure may show the parent alone.

`NCCCC(N)(C(=O)O)C(F)F` (centres unmarked) [DFMO, 2-(difluoromethyl)-ornithine, monohydrochloride, monohydrate]: in data set [1], the “clonal survival / colony formation” value was “decreased colony formation”. The “clonal survival / colony formation” value in data set [2] is “inhibited clonal survival to a greater extent in R1881-treated cells than vehicle control-treated cells; also recorded: decreased colony formation”. In addition, in data set [3], the MYC expression entry is given as “reduced; also recorded: enhances downregulation of MYC by SPA”. In addition, the eIF5A hypusination result in data set [4] is “marked reduction”. For the same molecule, in data set [5], the “differentially expressed transcripts vs VEH” value is given as “fewer”. The “half-life of AMD1 transcript” value in data set [6] (96 hours treatment then actinomycin 5 μg/mL) was above 8 h. For the same molecule, the “stability of AMD1 transcript” value in data set [6] (monohydrochloride, monohydrate) was “markedly increased stability; also recorded: stabilizes”. The “side-effects of high doses” value in data set [7] (high doses) was “reversible ototoxicity and myelosuppression”. In data set [7] (human, in vivo), the “chemoprevention trials of breast and cervix cancer” value was “negative”; the “doses not consistently associated with ototoxicity and myelosuppression” value is on record as “less than 1 g/m2/d”. Besides, the “prostate polyamine levels and prostate growth” value in data set [7] (over one year) is “can reduce prostate polyamine levels and the rate of growth of the prostate”.

Source of the values: patent publication US20260284076A1, “TESTOSTERONE AND DIFLUOROMETHYLORNITHINE COMBINATION THERAPY FOR PROSTATE CANCER” (The Johns Hopkins University, priority 2023, published 2026).
